Results: US11607458B2 (Georgia State University Research Foundation, Inc, priority 2017, dated 2023)
“And” between values parts separate entries of the source, which are not always exact repeats. Identical values can stand only once.

What was measured:
[1] = Stability of tetrazine prodrugs in PBS with or without 1 mM cysteine (HPLC); assay type: physicochemical; conditions: 25 μM, n = 4
Protocol: Due to the electron deficient nature of the tetrazine moiety, the stability of the tetrazine-linked prodrugs in the presence of high concentrations of thiol species was studied. In general, a solution of tetrazine prodrug (500 μL, 500 μM) was added to either 9.5 mL of PBS or 1 mM cysteine solution in PBS in a 20-mL vial. The solution was stirred at r.t. or 37° C. for 24 h. The reaction solution was injected into HPLC, and analyzed with Method A (described above) for prodrugs 1b and 1c, and Method B for prodrug 1d.
Prodrug (1d or 1b, 25 μM in PBS alone or in the presence of 1 mM cysteine (Cys) in PBS) was incubated at r.t or 37° C. for 24 h. Then HPLC was used to monitor the concentration of the remaining prodrug (Table 5). No stability problems were observed.

[2] = HPLC studies of reaction kinetics of tetrazine prodrugs with cyclooctyne alkynes (Kobs, second-order rate constant k2); assay type: physicochemical; conditions: for Kobs: prodrug 25 μM; for k2 at 37° C. (second order rate constant) / k2 at r.t (second order rate constant): PBS containing 10% DMSO, n = 3
Summary of the method: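 Tetrazine prodrug (25 μM) reacted with alkyne at 0.75, 1 and 1.25 mM in PBS with 10% DMSO, at room temperature or 37 °C. Prodrug HPLC peak area was sampled every 30 min and fitted to single exponential decay for kobs; k2 was taken as the slope of kobs versus alkyne concentration.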

Q: With `C#CCOc1ccc(-c2nnc(C(=O)NCCCOCCOCCOCCCNS(=O)(=O)c3cccc4c(N(C)C)cccc34)nn2)cc1` [1d] as the compound, how does the “Prodrugs remaining, 24 h in PBS with 1 mM Cys at 37° C.” value ([1]; PBS (5% DMSO) with 1 mM Cys, 37° C.) read?
A: 81 ± 5%

Q: What about the “Prodrugs remaining, 24 h in PBS with 1 mM Cys at r.t” value ([1]; PBS (5% DMSO) with 1 mM Cys, r.t) of the same compound?
A: 88 ± 5%

Q: What about the “Prodrugs remaining, 24 h in PBS at 37° C.” value ([1]; PBS (5% DMSO), 37° C.) of the same compound?
A: 85 ± 5%

Q: What about the “Prodrugs remaining, 24 h in PBS at r.t” value ([1]; PBS (5% DMSO), r.t) of the same compound?
A: 91 ± 5%

Q: What about the Kobs ([2]; 37° C., alkyne 2b 0.75 mM, Expt. 1) of the same compound?
A: 0.411 h⁻¹

Q: What about the Kobs ([2]; 37° C., alkyne 2b 0.75 mM, Expt. 2) of the same compound?
A: 0.388 h⁻¹

Q: And the Kobs ([2]; 37° C., alkyne 2b 0.75 mM, Expt. 3)?
A: 0.353 h⁻¹

Q: What about the Kobs ([2]; 37° C., alkyne 2b 1.00 mM, Expt. 1) of the same compound?
A: 0.548 h⁻¹

Q: What about the Kobs ([2]; 37° C., alkyne 2b 1.00 mM, Expt. 2) of the same compound?
A: 0.511 h⁻¹

Q: What about the Kobs ([2]; 37° C., alkyne 2b 1.00 mM, Expt. 3) of the same compound?
A: 0.453 h⁻¹

Q: And the Kobs ([2]; 37° C., alkyne 2b 1.25 mM, Expt. 1)?
A: 0.695 h⁻¹

Q: What about the Kobs ([2]; 37° C., alkyne 2b 1.25 mM, Expt. 2) of the same compound?
A: 0.636 h⁻¹

Q: What about the Kobs ([2]; 37° C., alkyne 2b 1.25 mM, Expt. 3) of the same compound?
A: 0.561 h⁻¹

Q: What about the Kobs ([2]; 37° C., alkyne 2c 0.75 mM, Expt. 1) of the same compound?
A: 0.0506 h⁻¹

Q: What about the Kobs ([2]; 37° C., alkyne 2c 0.75 mM, Expt. 2) of the same compound?
A: 0.0584 h⁻¹

Q: And the Kobs ([2]; 37° C., alkyne 2c 0.75 mM, Expt. 3)?
A: 0.0599 h⁻¹

Q: And the Kobs ([2]; 37° C., alkyne 2c 1.00 mM, Expt. 1)?
A: 0.0670 h⁻¹

Q: What about the Kobs ([2]; 37° C., alkyne 2c 1.00 mM, Expt. 2) of the same compound?
A: 0.0781 h⁻¹

Q: And the Kobs ([2]; 37° C., alkyne 2c 1.00 mM, Expt. 3)?
A: 0.0801 h⁻¹

Q: What about the Kobs ([2]; 37° C., alkyne 2c 1.25 mM, Expt. 1) of the same compound?
A: 0.083 h⁻¹

Q: And the Kobs ([2]; 37° C., alkyne 2c 1.25 mM, Expt. 2)?
A: 0.0978 h⁻¹

Q: What about the Kobs ([2]; 37° C., alkyne 2c 1.25 mM, Expt. 3) of the same compound?
A: 0.101 h⁻¹

Q: What about the Kobs ([2]; 37° C., alkyne 2d 0.25 mM, Expt. 1) of the same compound?
A: 1.82 h⁻¹

Q: What about the Kobs ([2]; 37° C., alkyne 2d 0.25 mM, Expt. 2) of the same compound?
A: 1.64 h⁻¹

Q: What about the Kobs ([2]; 37° C., alkyne 2d 0.25 mM, Expt. 3) of the same compound?
A: 1.90 h⁻¹

Q: And the Kobs ([2]; 37° C., alkyne 2d 0.3 mM, Expt. 1)?
A: 2.15 h⁻¹

Q: What about the Kobs ([2]; 37° C., alkyne 2d 0.3 mM, Expt. 2) of the same compound?
A: 1.94 h⁻¹

Q: And the Kobs ([2]; 37° C., alkyne 2d 0.3 mM, Expt. 3)?
A: 2.26 h⁻¹

Q: What about the Kobs ([2]; 37° C., alkyne 2d 0.35 mM, Expt. 1) of the same compound?
A: 2.53 h⁻¹

Q: And the Kobs ([2]; 37° C., alkyne 2d 0.35 mM, Expt. 2)?
A: 2.25 h⁻¹

Q: And the Kobs ([2]; 37° C., alkyne 2d 0.35 mM, Expt. 3)?
A: 2.65 h⁻¹

Q: And the “k2 at 37° C. (second order rate constant)” value ([2]; alkyne 2b, 37° C.)?
A: 0.14 M⁻¹ s⁻¹ and 0.14 ± 0.04 M⁻¹ s⁻¹

Q: And the “k2 at r.t (second order rate constant)” value ([2]; alkyne 2b, r.t)?
A: 0.042 M⁻¹ s⁻¹ and 0.042 ± 0.012 M⁻¹ s⁻¹

Q: What about the “k2 at 37° C. (second order rate constant)” value ([2]; alkyne 2c, 37° C.) of the same compound?
A: 0.021 M⁻¹ s⁻¹ and 0.021 ± 0.005 M⁻¹ s⁻¹

Q: What about the “k2 at r.t (second order rate constant)” value ([2]; alkyne 2c, r.t) of the same compound?
A: 0.0075 M⁻¹ s⁻¹ and 0.0075 ± 0.0009 M⁻¹ s⁻¹

Q: What about the “k2 at 37° C. (second order rate constant)” value ([2]; alkyne 2d, 37° C.) of the same compound?
A: 1.9 M⁻¹ s⁻¹ and 1.9 ± 0.4 M⁻¹ s⁻¹

Q: And the “k2 at r.t (second order rate constant)” value ([2]; alkyne 2d, r.t)?
A: 0.25 M⁻¹ s⁻¹ and 0.25 ± 0.06 M⁻¹ s⁻¹

Q: And the Kobs ([2]; r.t, alkyne 2b 0.75 mM, Expt. 1)?
A: 0.125 h⁻¹

Q: What about the Kobs ([2]; r.t, alkyne 2b 0.75 mM, Expt. 2) of the same compound?
A: 0.115 h⁻¹

Q: And the Kobs ([2]; r.t, alkyne 2b 0.75 mM, Expt. 3)?
A: 0.13 h⁻¹

Q: And the Kobs ([2]; r.t, alkyne 2b 1.00 mM, Expt. 1)?
A: 0.155 h⁻¹

Q: And the Kobs ([2]; r.t, alkyne 2b 1.00 mM, Expt. 2)?
A: 0.148 h⁻¹

Q: And the Kobs ([2]; r.t, alkyne 2b 1.00 mM, Expt. 3)?
A: 0.175 h⁻¹

Q: And the Kobs ([2]; r.t, alkyne 2b 1.25 mM, Expt. 1)?
A: 0.199 h⁻¹

Q: What about the Kobs ([2]; r.t, alkyne 2b 1.25 mM, Expt. 2) of the same compound?
A: 0.180 h⁻¹

Q: What about the Kobs ([2]; r.t, alkyne 2b 1.25 mM, Expt. 3) of the same compound?
A: 0.22 h⁻¹

Q: And the Kobs ([2]; r.t, alkyne 2c 0.75 mM, Expt. 1)?
A: 0.0203 h⁻¹

Q: And the Kobs ([2]; r.t, alkyne 2c 0.75 mM, Expt. 2)?
A: 0.0201 h⁻¹

Q: What about the Kobs ([2]; r.t, alkyne 2c 0.75 mM, Expt. 3) of the same compound?
A: 0.0217 h⁻¹

Q: And the Kobs ([2]; r.t, alkyne 2c 1.00 mM, Expt. 1)?
A: 0.0273 h⁻¹

Q: What about the Kobs ([2]; r.t, alkyne 2c 1.00 mM, Expt. 2) of the same compound?
A: 0.0269 h⁻¹

Q: And the Kobs ([2]; r.t, alkyne 2c 1.00 mM, Expt. 3)?
A: 0.0289 h⁻¹

Q: And the Kobs ([2]; r.t, alkyne 2c 1.25 mM, Expt. 1)?
A: 0.0339 h⁻¹

Q: And the Kobs ([2]; r.t, alkyne 2c 1.25 mM, Expt. 2)?
A: 0.0324 h⁻¹

Q: What about the Kobs ([2]; r.t, alkyne 2c 1.25 mM, Expt. 3) of the same compound?
A: 0.0359 h⁻¹

Q: What about the Kobs ([2]; r.t, alkyne 2d 0.75 mM, Expt. 1) of the same compound?
A: 0.752 h⁻¹

Q: What about the Kobs ([2]; r.t, alkyne 2d 0.75 mM, Expt. 2) of the same compound?
A: 0.704 h⁻¹

Q: And the Kobs ([2]; r.t, alkyne 2d 0.75 mM, Expt. 3)?
A: 0.756 h⁻¹

Q: What about the Kobs ([2]; r.t, alkyne 2d 1.00 mM, Expt. 1) of the same compound?
A: 0.980 h⁻¹

Q: What about the Kobs ([2]; r.t, alkyne 2d 1.00 mM, Expt. 2) of the same compound?
A: 0.802 h⁻¹

Q: What about the Kobs ([2]; r.t, alkyne 2d 1.00 mM, Expt. 3) of the same compound?
A: 1.01 h⁻¹

Q: And the Kobs ([2]; r.t, alkyne 2d 1.25 mM, Expt. 1)?
A: 1.20 h⁻¹

Q: And the Kobs ([2]; r.t, alkyne 2d 1.25 mM, Expt. 2)?
A: 1.10 h⁻¹

Q: What about the Kobs ([2]; r.t, alkyne 2d 1.25 mM, Expt. 3) of the same compound?
A: 1.26 h⁻¹
